Consider eight molecules from patent publication US5441947A, “Methods of inhibiting vascular restenosis” (Eli Lilly and Company, priority 1993, dated 1995).

The subject of the assay is smooth muscle cell chemotaxis. Briefly: smooth muscle cell chemotaxis (96 well chemotaxis chamber, PDGF-BB as inducer). Type of assay: cell-based. The note with it: four hours; for Degree of Cell Migration: absorbance; for IC50: 4 h, PDGF-BB 10 ng/ml as inducer, 37° C., read-out: half maximal inhibiting concentrations (IC50) to inhibit smooth muscle cell chemotaxis. On the procedure:
Compounds of the invention were tested for impact on smooth muscle cell chemotaxis using a model AB96 Neuro Probe® 96 well chemotaxis chaser. […] This chamber is available from Neuro Probe, Inc., P.O. Box 400, Cabin John, Md.
The chamber consists of a top plate, a bottom plate, a gasket and a polyvinyl pyrrolidone-free polycarbonate filter. […] The 8 μm pore filter is soaked in 0.5N acetic acid overnight and coated with collagen at 100 μg/ml in 0.1N acetic acid for 2 days. The filter is then dried in a hood. The filter is then installed on the bottom plate, followed by the gasket. The top plate is then placed on the gasket, forming the top wells. In the top wells, smooth muscle cells are placed with the compounds to be tested at specified concentrations in around 225 μl volume. The smooth muscle cells are plated at a density of 0.5×10^6 cells/mi. The chamber is incubated at 37° C., 5% CO2 for four hours, and at the end of this time the upper well-cells are scraped off. The lower well cells are fixed, stained, and the absorbance is read.

The mark [1] stands for this setting: 0.1 μm compound, PDGF-BB 10 ng/ml.
Setting [2] is: 10 μm compound, PDGF-BB 10 ng/ml.
The mark [3] stands for this setting: 0.03 μM compound, PDGF-BB 10 ng/ml.
Where [4] appears, read: 0.3 μm compound, PDGF-BB 10 ng/ml.

“And” between values parts separate entries of the source, which are not always exact repeats. Equal values may be shown once.

For the molecule `COc1cc2c(c(OC)c1OC)-c1ccc(OC)c(=O)cc1[C@@H](NC(C)=O)CC2` [Colchicine, reference compound], the “Degree of Cell Migration” value (1 μm compound, PDGF-BB 10 ng/ml) was 0.000.

For `COC[C@H]1OC(=O)c2coc3c2[C@@]1(C)C1=CC[C@]2(C)C(=O)CC[C@H]2C1C3=O` (stereo partly drawn) [II, Δ9,11-dehydrodesacetoxywortmannin], the IC50 was 200 nM.

Regarding `COCC1OC(=O)c2coc3c2C1(C)C1=C(C3=O)C2CCC(O)C2(C)CC1OC(C)=O` (stereo not drawn) [IIIA, 17α-Dihydrowortmannin], the IC50 came to 20 nM. Besides, the “Degree of Cell Migration” value (0.01 μm compound, PDGF-BB 10 ng/ml) stood at 0.033. The “Degree of Cell Migration” value under setting [1] is given as -0.010.

Take `Cc1c2c(c(O)c3occ(C(=O)O)c13)[C@@H]1CCC(=O)[C@@]1(C)C=C2` [IVa, opened A-ring acid of wortmannin]: the IC50 was over 10000 nM. The “Degree of Cell Migration” value under setting [2] stood at 0.04.

Turning to `COC(=O)c1coc2c(O)c3c(c(C)c12)C=C[C@]1(C)C(=O)CC[C@@H]31` [IVb, opened A-ring methyl ester of wortmannin], the IC50 turned out to be 10000 nM. Besides, the “Degree of Cell Migration” value under setting [2] stood at 0.026.

With `COCC1OC(=O)c2coc3c2C1(C)C1=C(C3=O)C2CCC(=O)C2(C)CC1OC(C)=O` (stereo not drawn) [Ia, wortmannin], the IC50 was determined as 30 nM. The “Degree of Cell Migration” value under setting [3] was 0.020. Further, under setting [1], the “Degree of Cell Migration” value stood at 0.006. The “Degree of Cell Migration” value under setting [4] is on record as -0.001.

On to `COC[C@H]1OC(=O)c2coc3c2[C@@]1(C)C1=C(C3=O)[C@@H]2CCC(=O)[C@@]2(C)CC1` [Ib, 11-desacetoxywortmannin], for which the IC50 was found to be 200 nM. The “Degree of Cell Migration” value under setting [3] is 0.044 and 0.036. Moreover, the “Degree of Cell Migration” value under setting [1] is 0.040 and 0.028. Also, the “Degree of Cell Migration” value under setting [4] is 0.015.

B1: PDGF: PDGF-BB at 10 ng/ml as an inducer, or chemoattractant (protein, UniProt P01127 82-190, looked up)
Platelet-derived growth …: SLGSLTIAEPAMIAECKTRTEVFEISRRLIDRTNANFLVWPPCVEVQRCSGCCNNRNVQCRPTQVQLRPVQVRKIEIVRKKPIFKKATVTLEDHLACKCETVAAARPVT
Turning to B1, under “PDGF 10 ng/ml alone (inducer control)”, the “Degree of Cell Migration” value is on record as 0.046.
